The source made the active and inactive calls. The calls are words filed in the database; no cut-off is given here.
Tests used:
[1] = tested on: U-251; assay: Antiproliferative activity against human U-251 cells assessed as reduction in cell proliferation at 0.075 to 1.2 uM and measured after 24 hrs by EdU incorporation based assay; type: functional; conditions: dose 0.075-1.2 µM, DDE = dose-dependent effect
[2] = Induction of apoptosis in human U-87 MG cells assessed as early apoptotic cells at 0.30 uM incubated for 72 hrs by Annexin V-FITC/PI staining based flow cytometry method (reference value: 2.53 %); type: functional, U-87MG ATCC; conditions: dose 0.3 µM
[3] = tested on: U-87MG ATCC; assay: Antiproliferative activity against human U-87 MG cells assessed as release of LDH in supernatant and measured after 72 hrs by microplate reader assay; type: functional, cell-based; conditions: DDE = dose-dependent effect
[4] = Induction of apoptosis in human U-87 MG cells assessed as early apoptotic cells at 1.20 uM incubated for 72 hrs by Annexin V-FITC/PI staining based flow cytometry method (reference value: 2.53 %); type: functional, U-87MG ATCC; conditions: dose 1.2 µM
[5] = tested on: U-251; assay: Antiproliferative activity against human U-251 cells assessed as inhibition of cell proliferation upto 72 hrs by CCK8 assay; type: functional, cell-based; conditions: TDE = time-dependent effect
[6] = tested on: U-251; assay: Induction of apoptosis in human U-251 cells assessed as decrease in cell size at 0.375 to 6 uM measured after 72 hrs by Giemsa staining based microscopic analysis; type: functional; conditions: dose 0.375-6 µM
[7] = Acute toxicity in Kunming mouse assessed as pathological changes in lung at 600 mg/kg, ip measured after 24 hrs by H and E staining analysis; type: organism-based; conditions: in vivo
[8] = tested on: U-251; assay: Antiinvasive activity against human U-251 cells assessed as inhibition of cell invasion at 0.25 to 1.0 uM measured after 24 hrs by transwell invasion assay; type: functional, cell-based; conditions: dose 0.25-1 µM, DDE = dose-dependent effect
[9] = Induction of apoptosis in human U-87 MG cells assessed as viable cells at 0.30 uM incubated for 72 hrs by Annexin V-FITC/PI staining based flow cytometry method (reference value: 96.84 %); type: functional, U-87MG ATCC; conditions: read-out: Activity
[10] = Half life in Sprague-Dawley rat brain at 100 mg/kg, ip and measured upto 240 mins by LC-MS analysis; type: ADME, organism-based
[11] = tested on: U-251; assay: Downregulation of CDK4 gene expression in human U-251 cells at 0.075 to 1.2 uM measured after 72 hrs by western blot analysis; type: functional, cell-based; conditions: dose 0.075-1.2 µM
[12] = tested on: U-251; assay: Antimigratory activity in human U-251 cells assessed as inhibition of cell migration by measuring wound closure at 0.25 to 1.0 uM and measured after 24 hrs by transwell migration assay; type: functional, cell-based; conditions: dose 0.25-1 µM, DDE = dose-dependent effect
[13] = Acute toxicity in Kunming mouse assessed as pathological changes in heart at 600 mg/kg, ip measured after 24 hrs by H and E staining analysis; type: organism-based; conditions: in vivo
[14] = AUC (0 to infinity) in Sprague-Dawley rat plasma at 100 mg/kg, ip and measured upto 240 mins by LC-MS analysis; type: ADME, organism-based; parameters: time < 240 min, dose 100 mg/kg, route ip
[15] = AUC (0 to t) in Sprague-Dawley rat brain at 100 mg/kg, ip and measured upto 240 mins by LC-MS analysis; type: ADME, organism-based; parameters: dose 100 mg/kg, time < 240 min, route ip
[16] = Induction of apoptosis in human U-87 MG cells assessed as necrotic cells at 0.075 uM incubated for 72 hrs by Annexin V-FITC/PI staining based flow cytometry method (reference value: 0.21 %); type: functional, U-87MG ATCC
[17] = Antitumor activity against human U-87 MG cells xenografted in BALB/c mouse assessed as tumor growth inhibition at 10 mg/kg,ip bid for 1 month; type: functional, U-87MG ATCC; conditions: 730 h, time 1 months, read-out: TGI
[18] = Acute toxicity in Kunming mouse assessed as pathological changes in kidney at 600 mg/kg, ip measured after 24 hrs by H and E staining analysis; type: organism-based; conditions: in vivo
[19] = tested on: U-87MG ATCC; assay: Antimigratory activity in human U-87 MG cells assessed as inhibition of cell migration by measuring wound closure at 0.125 to 0.50 uM and measured after 24 hrs by transwell migration assay; type: functional, cell-based; conditions: dose 0.125-0.5 µM, DDE = dose-dependent effect
[20] = tested on: U-251; assay: Induction of apoptosis in human U-251 cells assessed as early apoptotic cells at 0.375 uM incubated for 72 hrs by Annexin V-FITC/PI staining based flow cytometry method (Rvb =1.96 %); type: functional
[21] = tested on: U-251; assay: Downregulation of E2F gene expression in human U-251 cells at 0.075 to 1.2 uM measured after 72 hrs by western blot analysis; type: functional, cell-based; conditions: dose 0.075-1.2 µM
[22] = tested on: U-87MG ATCC; assay: Downregulation of CDK4 gene expression in human U-87 MG cells at 0.075 to 1.2 uM measured after 72 hrs by western blot analysis; type: functional, cell-based; conditions: dose 0.075-1.2 µM
[23] = tested on: U-87MG ATCC; assay: Antimigratory activity in human U-87 MG cells assessed as inhibition of cell migration by measuring wound closure at 0.125 to 0.50 uM and measured after 24 hrs by wound healing assay; type: functional, cell-based; conditions: dose 0.125-0.5 µM, DDE = dose-dependent effect
[24] = Induction of apoptosis in human U-87 MG cells assessed as necrotic cells at 0.30 uM incubated for 72 hrs by Annexin V-FITC/PI staining based flow cytometry method (reference value: 0.21 %); type: functional, U-87MG ATCC; conditions: dose 0.3 µM
[25] = tested on: U-251; assay: Downregulation of CDK6 gene expression in human U-251 cells at 0.075 to 1.2 uM measured after 72 hrs by western blot analysis; type: functional, cell-based; conditions: dose 0.075-1.2 µM
[26] = tested on: U-251; assay: Induction of apoptosis in human U-251 cells assessed as morphological changes at 0.375 to 6 uM measured after 72 hrs by Giemsa staining based microscopic analysis; type: functional, cell-based; conditions: dose 0.375-6 µM
[27] = tested on: U-87MG ATCC; assay: Upregulation of p16 INK4a gene expression in human U-87 MG cells at 0.075 to 1.2 uM measured after 72 hrs by western blot analysis; type: functional, cell-based; conditions: dose 0.075-1.2 µM
[28] = Antiproliferative activity against human U-87 MG cells assessed as inhibition of cell proliferation measured after 72 hrs by CCK8 assay; type: functional, cell-based, U-87MG ATCC
[29] = tested on: U-251; assay: Induction of apoptosis in human U-251 cells assessed as formation of spindle shaped cells at 0.375 to 6 uM measured after 72 hrs by Giemsa staining based microscopic analysis; type: functional, cell-based; conditions: dose 0.375-6 µM
[30] = Half life in Sprague-Dawley rat plasma at 100 mg/kg, ip and measured upto 240 mins by LC-MS analysis; type: ADME, organism-based
[31] = tested on: U-87MG ATCC; assay: Induction of cell cycle arrest in human U-87 MG cells assessed as decrease in accumulation at G2/M phase at 0.075 to 1.20 uM measured after 72 hrs by flow cytometry; type: functional, cell-based; conditions: dose 0.075-1.2 µM, DDE = dose-dependent effect
[32] = tested on: U-251; assay: Induction of apoptosis in human U-251 cells assessed as necrotic cells at 6 uM incubated for 72 hrs by Annexin V-FITC/PI staining based flow cytometry method (Rvb =0.51 %); type: functional
[33] = tested on: C6; assay: Antiproliferative activity against rat C6 cells assessed as inhibition of cell proliferation measured after 72 hrs by CCK8 assay; type: functional, cell-based; conditions: C6, 72 h
[34] = tested on: U-251; assay: Antiproliferative activity against human U-251 cells assessed as reduction in colony number at 0.25 to 1 uM for 2 to 3 weeks by crystal violet staining based plate clone formation assay; type: functional, cell-based; conditions: dose 0.25-1 µM, time 2-3 weeks, DDE = dose-dependent effect
[35] = tested on: U-251; assay: Upregulation of p16 INK4a gene expression in human U-251 cells at 0.075 to 1.2 uM measured after 72 hrs by western blot analysis; type: functional, cell-based; conditions: dose 0.075-1.2 µM
[36] = Acute toxicity in Kunming mouse assessed as pathological changes in liver at 600 mg/kg, ip measured after 24 hrs by H and E staining analysis; type: organism-based; conditions: in vivo

COCCN1CCN(c2ccc(F)cc2C(=O)Nc2ccc(CNC(=O)OCc3cccnc3)cc2)CC1
Activity [1]: Dde | Activity [2]: 4.51% | Activity [3]: Dde | Activity [4]: 17.92% | Activity [5]: Tde | Activity [6]: Active | Activity [7]: Non-Toxic | Activity [8]: Dde | viability at 0.3 µM [9]: 94.2% | half-life [10]: 43.8 min | Activity [11]: Active | Activity [12]: Dde | Activity [13]: Non-Toxic | AUC(0-inf) [14]: 95500 ng·h/mL | AUC(0-t) at 4 h [15]: 97000 ng·h/mL | Activity [16]: 0.33% | inhibition in vivo at 10 mg/kg [17]: 70.5% | Activity [18]: Non-Toxic | Activity [19]: Dde | Activity [20]: 1.9% | Activity [21]: Active | Activity [22]: Active | Activity [23]: Dde | Activity [24]: 0.34% | Activity [25]: Active | Activity [26]: Active | Activity [27]: Active | IC50 [28]: 290 nM | Activity [29]: Active | half-life [30]: 52.8 min | Activity [31]: Dde | Activity [32]: 2.63% | IC50 [33]: 150 nM | Activity [34]: Dde | Activity [35]: Active | Activity [36]: Non-Toxic

Source: ChEMBL document CHEMBL5131385, “Novel piperazine based benzamide derivatives as potential anti-glioblastoma agents inhibiting cell proliferation and cell cycle progression” (Eur J Med Chem, 2022)
